Experimental findings from US9156829B2, “Cycloalkyl and heterocycloalkyl compounds as orexin receptor antagonists” (Takeda Pharmaceutical Company Limited, priority 2014, dated 2015) are described below.

The target in assay [1] is human orexin receptor 2 (Homo sapiens (Human), UniProt O43614). As to the kind of experiment: Orexin antagonist activity, intracellular calcium FLIPR assay, RBL-2H3 cells expressing human orexin receptor 2. The format is cell-based. The settings on record: RBL-2H3 cells stably expressing human orexin receptor 2; orexin-A at approx. 80% maximal response; compound added 15 minutes before; read-out: Human Orexin2R IC50.
Sequence of human orexin receptor 2 (O43614 whole entry): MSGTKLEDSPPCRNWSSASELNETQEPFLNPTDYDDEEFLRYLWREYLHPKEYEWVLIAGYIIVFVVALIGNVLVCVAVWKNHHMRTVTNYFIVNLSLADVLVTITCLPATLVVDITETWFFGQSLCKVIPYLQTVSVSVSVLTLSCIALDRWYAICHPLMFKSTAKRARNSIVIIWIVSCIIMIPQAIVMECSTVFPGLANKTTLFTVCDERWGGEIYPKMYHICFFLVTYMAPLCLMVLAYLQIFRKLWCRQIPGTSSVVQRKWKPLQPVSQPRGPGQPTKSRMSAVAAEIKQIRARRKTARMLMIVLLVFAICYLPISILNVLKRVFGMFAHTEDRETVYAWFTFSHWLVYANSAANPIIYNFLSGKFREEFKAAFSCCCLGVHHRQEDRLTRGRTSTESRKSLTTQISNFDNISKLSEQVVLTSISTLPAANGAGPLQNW

The target of assay [2] is human orexin receptor 1 (Homo sapiens (Human), UniProt O43613). As to the kind of experiment: Orexin antagonist activity, intracellular calcium FLIPR assay, RBL-2H3 cells expressing human orexin receptor 1. It is filed as cell-based. As to conditions: RBL-2H3 cells stably expressing human orexin receptor 1; orexin-A at approx. 80% maximal response; compound added 15 minutes before; read-out: Human Orexin1R IC50.
Sequence of human orexin receptor 1 (O43613 whole entry): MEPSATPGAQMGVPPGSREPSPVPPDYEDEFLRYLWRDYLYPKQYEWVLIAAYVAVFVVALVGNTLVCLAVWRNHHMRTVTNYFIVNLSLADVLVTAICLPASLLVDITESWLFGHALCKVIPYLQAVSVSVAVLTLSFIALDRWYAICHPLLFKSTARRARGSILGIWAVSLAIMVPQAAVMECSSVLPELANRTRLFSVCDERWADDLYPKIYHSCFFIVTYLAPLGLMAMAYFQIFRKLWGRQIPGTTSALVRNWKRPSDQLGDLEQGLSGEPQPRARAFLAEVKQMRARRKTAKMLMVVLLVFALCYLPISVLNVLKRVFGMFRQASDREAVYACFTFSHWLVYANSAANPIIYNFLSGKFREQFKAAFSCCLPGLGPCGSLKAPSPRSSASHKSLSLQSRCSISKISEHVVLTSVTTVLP

For `O=C(N[C@H]1CCC[C@@H]1Nc1ncc(C(F)(F)F)nc1C1CC1)c1ncccc1-c1ncccn1` [Example 143, N-[(1S,2S)-2-{[3-Cyclopropyl-5-(trifluoromethyl)pyrazin-2-yl]amino}cyclopentyl]-3-(pyrimidin-2-yl)pyridine-2-carboxamide], the figures for the IC50 in assay [1] and in assay [2] were above 10000 nM and 49 nM, respectively.

As to `C[C@@]1(Nc2cnc(C(F)(F)F)cn2)CCC[C@H]1NC(=O)c1ccccc1-n1nccn1` [Example 83, N-[(1R,2R)-2-Methyl-2-{[5-(trifluoromethyl)pyrazin-2-yl]amino}cyclopentyl]-2-(2H-1,2,3-triazol-2-yl)benzamide], the IC50 worked out at 1400 nM in assay [1] and 2500 nM in assay [2].

For the compound `CCc1nc(C(F)(F)F)cnc1N[C@H]1CCC[C@@H]1NC(=O)c1cc(F)ccc1-c1ncccn1` [Example 158, N-[(1S,2S)-2-{[3-Ethyl-5-(trifluoromethyl)pyrazin-2-yl]amino}cyclopentyl]-5-fluoro-2-(pyrimidin-2-yl)benzamide], the IC50 in assay [1] was above 10000 nM; in assay [2], 5 nM.

As for `CN(c1cnc(C(F)(F)F)cn1)[C@H]1CCC[C@@H]1NC(=O)c1c(F)cccc1-n1nccn1` [Example 75, 2-Fluoro-N-[(1S,2S)-2-{methyl[5-(trifluoromethyl)pyrazin-2-yl]amino}cyclopentyl]-6-(2H-1,2,3-triazol-2-yl)benzamide], the IC50 in assay [1] is above 10000 nM; in assay [2], 279 nM.

For the compound `O=C(NC1CCCC1Cc1cc(C(F)(F)F)ccn1)c1ccccc1-n1nccn1` (stereo not drawn) [Example 22, 2-(2H-1,2,3-Triazol-2-yl)-N-(2-{[4-(trifluoromethyl)pyridin-2-yl]methyl}cyclopentyl)benzamide], the IC50 in assay [1] amounted to 6160 nM; in assay [2], 665 nM.

As for `CCOc1ccc(C)cc1C(=O)N[C@H]1CCC[C@@H]1Nc1cnc(C(F)(F)F)cn1` [Example 29, 2-Ethoxy-5-methyl-N-[(1S,2S)-2-{[5-(trifluoromethyl)pyrazin-2-yl]amino}cyclopentyl]benzamide], the IC50 in assay [1] was above 10000 nM; in assay [2], 279 nM.

Take `Cc1cc(C(F)(F)F)cnc1N[C@H]1CCC[C@@H]1NC(=O)c1ncccc1-c1ncccn1` [Example 137, N-[(1S,2S)-2-{[3-Methyl-5-(trifluoromethyl)pyridin-2-yl]amino}cyclopentyl]-3-(pyrimidin-2-yl)pyridine-2-carboxamide]: the 50% inhibitory concentration (IC50) in assay [1] is above 10000 nM; in assay [2] it was 34 nM.

Turning to `O=C(N[C@H]1CCC[C@@H]1Nc1ccc(C(F)(F)F)cn1)c1ncccc1-n1cccn1` [Example 101, 3-(1H-Pyrazol-1-yl)-N-[(1S,2S)-2-{[5-(trifluoromethyl)pyridin-2-yl]amino}cyclopentyl]pyridine-2-carboxamide], the IC50 was above 10000 nM in assay [1] and 310 nM in assay [2].

Consider `Cc1ccc(-n2cccn2)c(C(=O)N[C@H]2CCC[C@@H]2Nc2cnc(C(F)(F)F)cn2)c1` [Example 48, 5-Methyl-2-(1H-pyrazol-1-yl)-N-[(1S,2S)-2-{[5-(trifluoromethyl)pyrazin-2-yl]amino}cyclopentyl]benzamide], for which the IC50 in assay [1] is above 10000 nM; in assay [2], 88 nM.

For the compound `O=C(N[C@H]1CCC[C@@H]1Nc1ccc(C(F)(F)F)cn1)c1ncccc1-n1nccn1` [Example 100, 3-(2H-1,2,3-Triazol-2-yl)-N-[(1S,2S)-2-{[5-(trifluoromethyl)pyridin-2-yl]amino}cyclopentyl]pyridine-2-carboxamide], the IC50 in assay [1] was above 10000 nM; in assay [2], 128 nM.

Take `Cc1nc(C(F)(F)F)cnc1N[C@H]1CCC[C@@H]1NC(=O)c1cc(F)ccc1-c1ncccn1` [Example 80, 5-Fluoro-N-[(1S,2S)-2-{[3-methyl-5-(trifluoromethyl)pyrazin-2-yl]amino}cyclopentyl]-2-(pyrimidin-2-yl)benzamide]: the IC50 in assay [1] was above 10000 nM; in assay [2], 35 nM.

As for `CCc1nc(C(F)(F)F)cnc1N[C@H]1CCC[C@@H]1NC(=O)c1ccccc1-c1ncccn1` [Example 151, N-[(1S,2S)-2-{[3-Ethyl-5-(trifluoromethyl)pyrazin-2-yl]amino}cyclopentyl]-2-(pyrimidin-2-yl)benzamide], the concentration for half-maximal inhibition (IC50) in assay [1] is above 10000 nM; in assay [2], 29 nM.

Take `O=C(N[C@H]1CCC[C@@H]1Nc1cnc(C(F)(F)F)cn1)c1ccccc1-c1ncccn1` [Example 38, 2-(Pyrimidin-2-yl)-N-[(1S,2S)-2-{[5-(trifluoromethyl)pyrazin-2-yl]amino}cyclopentyl]benzamide]: the figures for the IC50 in assay [1] and in assay [2] were above 10000 nM and 49 nM, respectively.

In the case of `O=C(N[C@H]1CCC[C@@H]1Nc1cnc(C(F)(F)F)cn1)c1cc(C(F)(F)F)ccc1-n1ccnn1` [Example 54, 2-(1H-1,2,3-Triazol-1-yl)-5-(trifluoromethyl)-N-[(1S,2S)-2-{[5-(trifluoromethyl)pyrazin-2-yl]amino}cyclopentyl]benzamide], the IC50 in assay [1] was above 10000 nM; in assay [2], 950 nM.

In the case of `O=C(N[C@H]1CCC[C@@H]1Nc1cnc(C(F)(F)F)cn1)c1cc(F)ccc1-n1ccnn1` [Example 41, 5-Fluoro-2-(1H-1,2,3-triazol-1-yl)-N-[(1S,2S)-2-{[5-(trifluoromethyl)pyrazin-2-yl]amino}cyclopentyl]benzamide], the IC50 in assay [1] is above 10000 nM; in assay [2], 644 nM.

Regarding `Cc1ccc(-n2nccn2)c(C(=O)N[C@H]2CCC[C@@H]2Nc2ncc(C(F)(F)F)cn2)c1` [Example 3, 5-Methyl-2-(2H-1,2,3-triazol-2-yl)-N-[(1S,2S)-2-{[5-(trifluoromethyl)pyrimidin-2-yl]amino}cyclopentyl]benzamide], the figures for the IC50 in assay [1] and in assay [2] were above 10000 nM and 58 nM, respectively.

`O=C(N[C@H]1CCC[C@@H]1Nc1ncc(C(F)(F)F)nc1C1CC1)c1ncccc1-n1nccn1` [Example 142, N-[(1S,2S)-2-{[3-Cyclopropyl-5-(trifluoromethyl)pyrazin-2-yl]amino}cyclopentyl]-3-(2H-1,2,3-triazol-2-yl)pyridine-2-carboxamide]: the IC50 was 8830 nM in assay [1] and 12 nM in assay [2].

Take `O=C(N[C@H]1CCC[C@@H]1Nc1cnc(C(F)(F)F)cn1)c1ncccc1C1CC1` [Example 63, 3-Cyclopropyl-N-[(1S,2S)-2-{[5-(trifluoromethyl)pyrazin-2-yl]amino}cyclopentyl]pyridine-2-carboxamide]: the 50% inhibitory concentration (IC50) is above 10000 nM in assay [1] and 450 nM in assay [2].

For `CN(c1cnc(C(F)(F)F)cn1)[C@H]1CCC[C@@H]1NC(=O)c1ccccc1-n1nccn1` [Example 73, N-[(1S,2S)-2-{Methyl[5-(trifluoromethyl)pyrazin-2-yl]amino}cyclopentyl]-2-(2H-1,2,3-triazol-2-yl)benzamide], the IC50 in assay [1] is above 10000 nM; in assay [2], 248 nM.

As for `O=C(N[C@H]1CC(F)(F)C[C@@H]1Nc1ccc(OC(F)(F)F)cn1)c1ccccc1-n1nccn1` [Example 131, N-[(1S,2S)-4,4-Difluoro-2-{[5-(trifluoromethoxy)pyridin-2-yl]amino}cyclopentyl]-2-(2H-1,2,3-triazol-2-yl)benzamide], the concentration for half-maximal inhibition (IC50) in assay [1] is above 10000 nM; in assay [2], 39 nM.

As to `O=C(N[C@H]1CCC[C@@H]1Nc1ccc(Br)cn1)c1ccccc1-n1nccn1` [Example 118, N-[(1S,2S)-2-[(5-Bromopyridin-2-yl)amino]cyclopentyl]-2-(2H-1,2,3-triazol-2-yl)benzamide], the IC50 was above 10000 nM in assay [1] and 368 nM in assay [2].
